Measured values taken from US10100016B2, “Condensed ring derivative, and preparation method, intermediate, pharmaceutical composition and use thereof” (SHANGHAI YINGLI PHARMACEUTICAL CO., LTD., priority 2015, dated 2018).

Target: hURAT1 (Homo sapiens (Human), UniProt Q96S37)
Assay: 14C-uric acid transport inhibition in transfected HEK293/hURAT1 cells
Format: cell-based
Settings: 14C-uric acid uptake, 10 mins incubation, read-out: IC50 value against hURAT1
Description: Human embryonic kidney cells (HEK293) was incubated in DMEM tissue culture medium, at 37° C., under 5% CO2 and 95% air atmosphere. […] Transfected HEK293/hURAT1 cells were used to the test for ^14C-uric acid transport activity.
The uric acid [8-14C] […] The incubating solution was removed after 10 mins incubation, followed by adding 100 μL cold washing buffer, after washing with this buffer for 3 times, the buffer was completely removed from the well.

Chain of hURAT1 (Q96S37 whole entry): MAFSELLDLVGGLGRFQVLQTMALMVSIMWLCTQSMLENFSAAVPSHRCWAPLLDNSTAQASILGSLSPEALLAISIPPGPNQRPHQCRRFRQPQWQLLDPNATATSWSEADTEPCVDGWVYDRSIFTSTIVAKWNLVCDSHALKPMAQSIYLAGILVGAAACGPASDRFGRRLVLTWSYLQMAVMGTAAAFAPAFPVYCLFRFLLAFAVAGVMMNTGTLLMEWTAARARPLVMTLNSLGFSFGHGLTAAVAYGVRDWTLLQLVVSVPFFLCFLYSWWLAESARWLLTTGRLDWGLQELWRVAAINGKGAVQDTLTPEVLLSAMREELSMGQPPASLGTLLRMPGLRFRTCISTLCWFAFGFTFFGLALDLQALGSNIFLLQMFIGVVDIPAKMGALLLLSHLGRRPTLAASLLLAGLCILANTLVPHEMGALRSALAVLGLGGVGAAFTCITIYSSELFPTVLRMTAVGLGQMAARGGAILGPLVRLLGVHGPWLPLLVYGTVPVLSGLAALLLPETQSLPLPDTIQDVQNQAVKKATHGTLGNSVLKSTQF

IC50 [nM] | Structure (SMILES)
24 | CC(CC(=O)O)c1cc2c(-c3ccc(C#N)c4ccccc34)cncc2s1 (racemic) [Compound 42, 3-[4-(4-Cyanonaphthalen-1-yl)thieno[2,3-c]pyridin-2-yl] butyric Acid]
37 | CC(CC(=O)O)c1cc2cncc(-c3ccc(C#N)c4ccccc34)c2s1 (racemic) [Compound 52, 3-[7-(4-Cyanonaphthalen-1-yl)thieno[3,2-c]pyridine-2-yl]-butyric Acid]
2530 | N#Cc1ccc(-c2cncc3ccc(C(=O)O)cc23)cc1 [Compound 1, 4-(4-cyanophenyl)isoquinoline-6-carboxylic Acid]
327 | N#Cc1ccc(-c2cncc3ccc(CC(=O)O)cc23)c2ccccc12 [Compound 3, 2-[4-(4-Cyanonaphthalen-1-yl)isoquinolin-6-yl]acetic Acid]
214 | CC(C)(Oc1ccc2cncc(-c3ccc(C#N)cc3)c2c1)C(=O)O [Compound 6, 2{[4-(4-Cyanophenyl)isoquinolin-6-yl]oxy}-2-methylpropionic Acid]
57 | CC(C)(Sc1ccc2cncc(-c3ccc(C#N)cc3F)c2c1)C(=O)O [Compound 8, 2{[4-(4-Cyano-2-fluorophenyl)isoquinolin-6-yl]thio}-2-methylpropionic Acid]
127 | CC(C)(Sc1cc(F)c2cncc(-c3ccc(C#N)c4ccccc34)c2c1)C(=O)O [Compound 9, 2{[4-(4-Cyanonaphthalen-1-yl)-8-fluoroisoquinolin-6-yl]thio}-2-methylpropionic Acid]
19 | CC(C)(Sc1ccc2cncc(-c3cccc4c(C#N)cccc34)c2c1)C(=O)O [Compound 10, 2{[4-(5-Cyanonaphthalen-1-yl)isoquinolin-6-yl]thio}-2-methylpropionic Acid]
62 | CC(C)(Sc1ccc2cncc(-c3ccc(C#N)c4c3OCCO4)c2c1)C(=O)O [Compound 11, 2-{[4-(8-Cyano-2,3-dihydro-1,4-benzodioxan-5-yl)isoquinolin-6-yl]thio}-2-methylpropionic Acid]
71 | CC(C)(Sc1ccc2cncc(-c3ccc(C#N)c4ccc(F)cc34)c2c1)C(=O)O [Compound 12, 2-{[4-(4-Cyano-7-fluoronaphthalen-1-yl)isoquinolin-6-yl]thio}-2-methyl propionic Acid]
189 | CC(CC(=O)O)c1ccc2cncc(-c3ccc(C#N)cc3)c2c1 (centres unmarked) [Compound 13, 3-[4-(4-Cyanophenyl)isoquinolin-6-yl]butyric Acid]
24 | CC(CC(=O)O)c1ccc2cncc(-c3ccc(C#N)c4ccccc34)c2c1 (centres unmarked) [Compound 15, 3-[4-(4-Cyanonaphthalen-1-yl)isoquinolin-6-yl]butyric Acid]
15 | CC(Cc1ccc2cncc(-c3ccc(C#N)c4ccccc34)c2c1)C(=O)O (centres unmarked) [Compound 16, 3-[4-(4-Cyanonaphthalen-1-yl)isoquinolin-6-yl]-2-methyl propionic acid]
12 | CC(C)(Cc1ccc2cncc(-c3ccc(C#N)c4ccccc34)c2c1)C(=O)O [Compound 17, 3-[4-(4-Cyanonaphthalen-1-yl)isoquinolin-6-yl]-2,2-dimethyl propionic Acid]
100 | CC(Sc1ccc2cncc(-c3ccc(C#N)c4ccccc34)c2c1)C(=O)O (centres unmarked) [Compound 21, 2-{[4-(4-Cyanonaphthalen-1-yl)isoquinolin-6-yl]thio}propionic Acid]
55 | CC(C)(Sc1ccc2cncc(-c3ccc(C#N)c(Cl)c3)c2c1)C(=O)O [Compound 22, 2-{[4-(3-Chloro-4-cyanophenyl)isoquinolin-6-yl]thio}-2-methyl propionic Acid]
18 | CC(C)(Sc1ccc2cncc(-c3ccc(C#N)cc3Cl)c2c1)C(=O)O [Compound 23, 2-{[4-(2-Chloro-4-cyanophenyl)isoquinolin-6-yl]thio}-2-methyl propionic Acid]
18 | N#Cc1ccc(-c2cncc3ccc(SC4(C(=O)O)CCC4)cc23)c2ccccc12 [Compound 24, 1-{[4-(4-cyanonaphthalen-1-yl)isoquinolin-6-yl]thio}cyclobutane-1-carboxylic Acid]
119 | Cc1nn(Cc2c(Cl)cccc2Cl)c2cc(SC(C)(C)C(=O)O)ccc12 [Compound 26, 2-({1-[(2,6-dichlorophenyl)methyl]-3-methyl-1H-indazol-6-yl}thio)-2-methyl propionic Acid]
2860 | N#Cc1ccc(-c2cncc3cc(C(=O)O)sc23)c2ccccc12 [Compound 29, 7-(4-Cyanonaphthalen-1-yl)thieno[3,2-c]pyridin-2-formic Acid]
3420 | N#Cc1ccc(-c2cncc3cc(CC(=O)O)sc23)c2ccccc12 [Compound 31, 2-[7-(4-Cyanonaphthalen-1-yl)thieno[3,2-c]pyridin-2-yl]acetic Acid]
5400 | N#Cc1ccc(-c2cncc3cc(CC(=O)O)sc23)cc1 [Compound 32, 2-[7-(4-Cyanophenyl)thieno[3,2-c]pyridin-2-yl]acetic Acid]
42 | CC(C)(Cc1cc2cncc(-c3ccc(C#N)cc3)c2s1)C(=O)O [Compound 33, 3-[7-(4-Cyanophenyl)thieno[3,2-c]pyridin-2-yl]-2,2-dimethylpropionic Acid]
139 | CC(C)(Cc1cc2cncc(-c3ccc(C#N)c4ccccc34)c2s1)C(=O)O [Compound 34, 3-[7-(4-Cyanonaphthalen-1-yl)thieno[3,2-c]pyridin-2-yl]-2,2-dimethylpropionic Acid]
3470 | CC(C)(Cc1cc2c(Cc3c(Cl)cccc3Cl)cccc2s1)C(=O)O [Compound 40, 3-{4-[(2,6-Dichlorophenyl)methyl]-1-benzothiophen-2-yl]-2,2-dimethyl propionic Acid]
116 | CC(C)(C(=O)O)c1ccc2cncc(-c3ccc(C#N)c4ccccc34)c2c1 [Compound 49, 2-[4-(4-Cyanonaphthalen-1-yl)isoquinolin-6-yl]-2-methyl propionic acid]
971 | CC(C)(Sc1ccc2cnnc(-c3ccc(C#N)c4ccccc34)c2c1)C(=O)O [Compound 50, 2-{[4-(4-Cyanonaphthalen-1-yl)phthalazin-6-yl]thio}-2-methyl propionic Acid]
19 | CC(C)(Cc1ccc2cncc(-c3ccc(C#N)cc3)c2c1)C(=O)O [Compound 51, 3-[4-(4-Cyanophenyl)isoquinolin-6-yl]-2,2-dimethyl propionic Acid]
113 | CC(C)(Sc1ccncc1-c1ccc(C#N)c2ccccc12)C(=O)O [Verinurad (RDEA3170), reference compound]

Structure (SMILES) | IC50 [nM]
N#Cc1ccc(-c2cncc3ccc(CCC(=O)O)cc23)cc1 [Compound 2, 3-[4-(4-Cyanophenyl)isoquinolin-6-yl]propionic Acid] | 161
CC(C)(Sc1ccc2cncc(-c3ccc(C#N)cc3)c2c1)C(=O)O [Compound 4] | 15
N#Cc1ccc(-c2cncc3ccc(/C=C/C(=O)O)cc23)c2ccccc12 [Compound 14, (2E)-3-[4-(4-Cyanonaphthalen-1-yl)isoquinolin-6-yl]acrylic Acid] | 385
Cc1nc(Cc2c(Cl)cccc2Cl)n2cc(CCC(=O)O)ccc12 [Compound 25, 3-{3-[(2,6-dichlorophenyl)methyl]-1-methylimidazole[1,5-a]pyridine-6-yl}propionic Acid] | 289
CC(C)(Sc1ccc2nccn2c1-c1ccc(C#N)cc1)C(=O)O [Compound 27, 2-{[5-(4-Cyanophenyl)imidazo[1,2-a]pyridin-6-yl]thio}-2-methyl propionic Acid] | 1730
N#Cc1ccc(-c2cncc3cc(CCC(=O)O)sc23)c2ccccc12 [Compound 30, 3-[7-(4-Cyanonaphthalen-1-yl)thieno[3,2-c]pyridin-2-yl]propionic acid] | 87
CC(C)(Cc1cc2c(-c3ccc(C#N)c4ccccc34)cccc2s1)C(=O)O [Compound 38, 3-[4-(4-Cyanonaphthalen-1-yl)-1-benzothiophen-2-yl]-2,2-dimethyl propionic Acid] | 209
CC(O)(CC(=O)O)c1cc2c(-c3ccc(C#N)c4ccccc34)cncc2s1 (centres unmarked) [Compound 41, 3-[4-(4-Cyanonaphthalen-1-yl)thieno[2,3-c]pyridin-2-yl]-3-hydroxyl butyric Acid] | 934
CC(C)(Cc1cc2c(-c3ccc(C#N)c4ccccc34)cncc2s1)C(=O)O [Compound 47, 3-[4-(4-Cyanonaphthalen-1-yl)thieno[2,3-c]pyridin-2-yl]-2,2-dimethyl propionic Acid] | 18
